# Assays:
# [1] = tested on: human leukemia cell line CCRF-CEM; experiment: Telomerase inhibitory activity in cell system (Test Example 3, TRAP assay of cell extract); assay type: cell-based
# Protocol: After a test compound was allowed to contact with human leukemia cell line CCRF-CEM for 7 days, a cell extraction solution was prepared and the enzyme activity was measured by a known method (U.S. Patent 5,629,154). That is, the cell extraction solution was prepared using a buffer solution containing 0.5% CHAPS {3-[(3-cholamidopropyl)dimethylammonio]-1-propanesulfonate}. using the extraction solution, TRAP (Telomeric Repeat Amplification Protocol) assay was carried out (TRAPEZE™ ELISA Telomerase Detection Kit, manufactured by Oncor Co.) Inhibitory ratio was calculated based on the ratio of the enzyme activity in the extraction solution from the cells treated with the test compound relative to the enzyme activity in the extraction solution from the test compound-untreated cells.
# [2] = tested on: human leukemia cell line CCRF-CEM; experiment: Induction of the reduction of telomere in cell system (Test Example 4); assay type: cell-based
# Protocol: After a test compound was. allowed to contact with human leukemia cell line CCRF-CEM for 21 days, a chromosomal DNA was extracted and the telomere length was measured by a known method (Biotechniques, 23: 476-484 (1997)). That is, the extracted chromosomal DNA was adsorbed on a membrane, and hybridization was carried out by using a labeled oligonucleotide probe having a sequence complementary to the telomere sequence. The signal of the label on the membrane proportional to the telomere DNA length was detected and digitalized.
# [3] = contact for 7 days, 2, 4.4 µmol/L
# [4] = contact for 21 days, 2, 4.4 µmol/L
# [5] = contact for 7 days, 8.9, 13 µmol/L
# [6] = contact for 21 days, 13, 30 µmol/L
SMILES,"cytotoxicity [1, 3]","inhibition of intracellular telomerase [1, 3]","cytotoxicity ([1]; contact for 7 days, concentrations higher than 4.4 µmol/L)","cytotoxicity [2, 4]","telomere reduction [2, 4]","cytotoxicity ([2]; contact for 21 days, concentrations higher than 4.4 µmol/L)","cytotoxicity [1, 5]","inhibition of intracellular telomerase [1, 5]","cytotoxicity [2, 6]","telomere reduction [2, 6]"
C[n+]1ccc(-c2c3nc(c(-c4cc[n+](C)cc4)c4ccc([nH]4)c(-c4cc[n+](C)cc4)c4nc(c(-c5cc[n+](C)cc5)c5ccc2[nH]5)C=C4)C=C3)cc1 [TMPyP4],no remarkable cytotoxicity was shown,did not inhibit telomerase,no cellular protein was recovered at higher concentrations because of the cytotoxicity,no remarkable cytotoxicity was shown,did not induce telomere reduction,no chromosomal DNA was recovered at higher concentrations because of the cytotoxicity,,,,
CC1=C(CCC(=O)O)c2cc3[nH]c(cc4nc(cc5[nH]c(cc1n2)c(CCC(=O)O)c5C)C(C)=C4CCC(=O)O)c(CCC(=O)O)c3C [Compound 1],,,,,,,no remarkable cytotoxicity was shown,inhibited intracellular telomerase,no remarkable cytotoxicity was shown,induced telomere reduction
